Values quoted from earlier work as cited in patent US10294217B2, “Fluoroindole derivatives as muscarinic M1 receptor positive allosteric modulators” (Suven Life Sciences Limited, priority 2015, dated 2019).

Assays:
[1] = target: M1 (Homo sapiens (Human), UniProt P11229); settings: cited from earlier work
[2] = cited from earlier work

N#CC1(c2ccccn2)CCN(Cc2cc(C(=O)O)c(=O)n3ccccc23)CC1 [PQCA, 1-{[4-cyano-4-(pyridine-2-yl)piperidin-1-yl]methyl}-4-oxo-4H-quinolizine-3-carboxylic acid]
selectivity for M1 over the other muscarinic receptor subtypes [1]: highly selective | gastrointestinal side effects ([2]; at doses equal to or less than a fivefold margin from the minimum effective dose required to improve cognition): no gastrointestinal side effects | efficacy in preclinical models of cognition ([2]; several preclinical models of cognition): efficacious
